Reference: patent publication US9815842B2, “Pyrazolo pyrimidine derivatives and their use as MALT1 inhibitors” (Novartis AG, priority 2014, dated 2017)

What was measured:
[1] = system: Human IL2 promoter; experiment: Human IL2 promoter reporter gene assay (RGA) in Jurkat cells; assay type: cell-based; details: Jurkat clone K22 290_H23, anti-CD28 mAb + PMA stimulation 5.5 h
Description: Human IL2 Promoter Reporter Gene Assay (RGA) in Jurkat Cells
The transfected Jurkat clone K22 290_H23 was propagated in RPMI 1640 supplemented with 10% heat inactivated fetal calf serum, 50 μM 2-mercaptoethanol and 1 mg/ml Geneticin. The cell concentration should not exceed 1×10e6/ml during culturing. The cells should not exceed passage 30. Prior to the assay the cells were washed and prepared to the concentration of 2×10e6 cells/ml.
Compound dilutions were made as 2×-concentrated solutions then diluted 1/2 by addition to cells. Two hundred and fifty μl of compound dilution and 250 μl of cells were mixed together in wells of a 96-deep well plate. Cells/compounds premix were incubated 30 min at 37° C. and 5% CO2 directly in the deep well plate.
After pre-incubation of cells with compounds, cells were stimulated with anti-CD28 mAb (clone 15E8) at 3 μg/ml+PMA at 1 μg/ml. Both co-stimulants were diluted in culture medium at a 10×-concentrated solution. 10 μl of co-stimulants were pipetted into the white 96-well plates and 100 μl of cell/compound mix was immediately added in duplicates. The cells were stimulated for 5.5 h at 37° C. and 5% CO2.
After cell stimulation, 50 μl of BriteLitePlus reagent (Perkin Elmer) was added to each well and the bioluminescence was measured with a Wallac EnVision reader (Perkin Elmer).

[2] = biological target: cIAP2-MALT1 fusion protein (Homo sapiens, UniProt Q9UDY8); experiment: cell-based
Description: For the measurement of compound inhibition, 0.25 μl of test compound were mixed with 12.5 μl of enzyme in wells of the 384-well plates, and incubated for 60 minutes at room temperature (22° C.). After that, 12.5 μl of substrate was added, and the enzymatic reaction was allowed to proceed for 60 minutes at room temperature (22° C.). […] The DMSO content was between 0.9 and 1% (v/v). […] The IC50 value was calculated from the plot of percentage inhibition versus inhibitor concentration using non-linear regression analysis software (Origin, OriginLab Corporation, USA). The data were fitted using a 4 Parameter Logistic Model, characterized by the following equation: y=A2+(A1−A2)/(1+(x/IC50)^p) where y is the %-inhibition at the inhibitor concentration, x. A1 is the lowest inhibition value, and A2 the maximum inhibition value.

[3] = biological target: C-domain of MALT1 (amino acids 329-824) (Homo sapiens (Human), UniProt Q9UDY8); experiment: MALT1 biochemical assay (fluorescence lifetime enzyme activity assay); details: 60 min pre-incubation, 2.5 nM enzyme, 1 μM peptide substrate
Description: The readout parameter is the increase of fluorescence lifetime over time, proportional to enzyme activity.
The assay employs a short peptide substrate labeled with the single fluorophore PT14 as a fluorescence lifetime probe sensitive to the cleavage state of the substrate (PT14: 6-(9-oxo-9H-acridin-10-yl)-hexanoate, AssayMetrics, UK). […] The assay buffer consists of 200 mM Tris/HCl at pH 7.5, 0.8 M Na citrate, 100 μM EGTA, 100 μM DTT and 0.05% (w/v) CHAPS. […] Test compounds were dissolved in 100% (v/v) DMSO or a mixture containing 90% (v/v) DMSO and 10% (v/v) H2O at a stock concentration of 100 mM. Serial dilutions of test compounds were prepared using either 100% (v/v) DMSO or a mixture containing 90% (v/v) DMSO and 10% (v/v) H2O.

Chain of C-domain of MALT1 (amino acids 329-824) (Q9UDY8 329-824): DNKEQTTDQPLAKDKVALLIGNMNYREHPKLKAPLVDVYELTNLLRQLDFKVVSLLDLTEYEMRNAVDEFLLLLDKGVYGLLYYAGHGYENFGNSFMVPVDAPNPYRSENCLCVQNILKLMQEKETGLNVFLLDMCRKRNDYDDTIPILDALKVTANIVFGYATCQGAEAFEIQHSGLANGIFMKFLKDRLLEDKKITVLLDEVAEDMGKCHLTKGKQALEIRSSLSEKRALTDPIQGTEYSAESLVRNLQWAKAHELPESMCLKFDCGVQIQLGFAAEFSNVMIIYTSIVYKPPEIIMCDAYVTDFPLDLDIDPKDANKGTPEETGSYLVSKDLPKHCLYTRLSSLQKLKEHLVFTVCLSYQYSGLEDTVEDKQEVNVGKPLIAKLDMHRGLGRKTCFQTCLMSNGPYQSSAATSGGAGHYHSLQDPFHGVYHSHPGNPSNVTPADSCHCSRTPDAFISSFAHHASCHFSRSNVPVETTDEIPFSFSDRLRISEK
Chain of cIAP2-MALT1 fusion protein (Q9UDY8 2-824 limits assumed): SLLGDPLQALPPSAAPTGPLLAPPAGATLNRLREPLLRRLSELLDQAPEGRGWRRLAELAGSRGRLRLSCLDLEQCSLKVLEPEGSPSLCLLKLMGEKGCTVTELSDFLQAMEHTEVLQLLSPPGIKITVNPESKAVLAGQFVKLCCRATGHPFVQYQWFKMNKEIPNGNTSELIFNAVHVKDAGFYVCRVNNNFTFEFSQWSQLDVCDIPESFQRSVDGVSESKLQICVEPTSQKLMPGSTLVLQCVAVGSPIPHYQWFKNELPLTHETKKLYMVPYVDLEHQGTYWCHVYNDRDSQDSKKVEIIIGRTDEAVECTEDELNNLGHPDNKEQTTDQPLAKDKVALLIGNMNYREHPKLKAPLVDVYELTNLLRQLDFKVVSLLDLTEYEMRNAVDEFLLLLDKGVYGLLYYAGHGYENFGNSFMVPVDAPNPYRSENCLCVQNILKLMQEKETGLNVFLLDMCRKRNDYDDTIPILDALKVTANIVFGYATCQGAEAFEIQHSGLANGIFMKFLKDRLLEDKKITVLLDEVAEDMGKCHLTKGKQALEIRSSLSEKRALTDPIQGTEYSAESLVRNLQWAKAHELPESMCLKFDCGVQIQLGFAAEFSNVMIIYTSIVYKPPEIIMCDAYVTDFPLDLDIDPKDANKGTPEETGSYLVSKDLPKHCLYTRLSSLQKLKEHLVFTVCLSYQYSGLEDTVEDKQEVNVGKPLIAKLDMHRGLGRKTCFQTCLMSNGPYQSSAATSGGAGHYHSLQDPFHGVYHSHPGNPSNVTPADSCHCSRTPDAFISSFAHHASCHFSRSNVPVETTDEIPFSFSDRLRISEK

SMILES	IC50 [1] [µM]	IC50 [2] [µM]	IC50 [3] [µM]
Cc1ncn(-c2ccc(NC(=O)Nc3cnc4cc(Cl)nn4c3C(C)C)cc2C#N)n1 [Example 19, 1-(2-chloro-7-isopropylpyrazolo[1,5-a]pyrimidin-6-yl)-3-(3-cyano-4-(3-methyl-1H-1,2,4-triazol-1-yl)phenyl)urea]	0.149	0.091	0.003
COC[C@H](OC)c1c(NC(=O)Nc2cnc(-n3nccn3)c(Cl)c2)cnc2cc(Cl)nn12 [Example 126, (R)-1-(5-chloro-6-(2H-1,2,3-triazol-2-yl)pyridin-3-yl)-3-(2-chloro-7-(1,2-dimethoxyethyl)pyrazolo[1,5-a]pyrimidin-6-yl)urea]	0.058	0.119	0.005
Cc1c(NC(=O)Nc2cnc(-n3nccn3)c(Cl)c2)cnc2cc(Cl)nn12 [Example 62, 1-(5-chloro-6-(2H-1,2,3-triazol-2-yl)pyridin-3-yl)-3-(2-chloro-7-methylpyrazolo[1,5-a]pyrimidin-6-yl)urea]	0.266	0.345	0.042
COCC(OC)c1c(NC(=O)Nc2cnc(-n3nccn3)c(Cl)c2)cnc2cc(Cl)nn12 (centres unmarked) [Example 56, 1-(5-chloro-6-(2H-1,2,3-triazol-2-yl)pyridin-3-yl)-3-(2-chloro-7-(1,2-dimethoxyethyl)pyrazolo[1,5-a]pyrimidin-6-yl)urea]	0.095	0.131	0.005
Cc1cnn(-c2ncc(NC(=O)Nc3cnc4cc(Cl)nn4c3C(C)C)cc2Cl)n1 [Example 22, 1-(5-chloro-6-(4-methyl-2H-1,2,3-triazol-2-yl)pyridin-3-yl)-3-(2-chloro-7-isopropylpyrazolo[1,5-a]pyrimidin-6-yl)urea]	0.1	0.074	0.004
CCOc1ncc(NC(=O)Nc2cnc3cc(Cl)nn3c2C(C)C)cc1Cl [Example 25, 1-(5-chloro-6-ethoxypyridin-3-yl)-3-(2-chloro-7-isopropylpyrazolo[1,5-a]pyrimidin-6-yl)urea]	0.526	0.306	
COC(c1ccccc1)c1c(NC(=O)Nc2cnc(-n3nccn3)c(Cl)c2)cnc2cc(Cl)nn12 (centres unmarked) [Example 49, 1-(5-chloro-6-(2H-1,2,3-triazol-2-yl)pyridin-3-yl)-3-(2-chloro-7-(methoxy(phenyl)methyl)pyrazolo[1,5-a]pyrimidin-6-yl)urea]		0.059	0.003
CO[C@H](C)CO[C@@H](C)c1c(NC(=O)Nc2cnc(-n3nccn3)c(Cl)c2)cnc2cc(Cl)nn12 [Example 85, 1-(5-chloro-6-(2H-1,2,3-triazol-2-yl)pyridin-3-yl)-3-(2-chloro-7-((S)-1-((R)-2-methoxypropoxy)ethyl)pyrazolo[1,5-a]pyrimidin-6-yl)urea]		0.19	0.005
COc1ncc(NC(=O)Nc2cnc3cc(Cl)nn3c2C2C3COCC32)cc1Cl (centres unmarked) [Example 67, 1-(7-(3-oxabicyclo[3.1.0]hexan-6-yl)-2-chloropyrazolo[1,5-a]pyrimidin-6-yl)-3-(5-chloro-6-methoxypyridin-3-yl)urea]		0.553	0.035
COCCO[C@H](C)c1c(NC(=O)Nc2cnc(-n3nccn3)c(Cl)c2)cnc2cc(Cl)nn12 [Example 42, (R)-1-(5-chloro-6-(2H-1,2,3-triazol-2-yl)pyridin-3-yl)-3-(2-chloro-7-(1-(2-methoxyethoxy)ethyl)pyrazolo[1,5-a]pyrimidin-6-yl)urea]		0.378	0.021
C[C@H](OCCN(C)C)c1c(NC(=O)Nc2cnc(-n3nccn3)c(Cl)c2)cnc2cc(Cl)nn12 [Example 82, (S)-1-(5-chloro-6-(2H-1,2,3-triazol-2-yl)pyridin-3-yl)-3-(2-chloro-7-(1-(2-(dimethylamino)ethoxy)ethyl)pyrazolo[1,5-a]pyrimidin-6-yl)urea]		0.311	0.122
CN1CCCC[C@H]1c1c(NC(=O)Nc2cnc(-n3nccn3)c(Cl)c2)cnc2cc(Cl)nn12 [Example 84, (S)-1-(5-chloro-6-(2H-1,2,3-triazol-2-yl)pyridin-3-yl)-3-(2-chloro-7-(1-methylpiperidin-2-yl)pyrazolo[1,5-a]pyrimidin-6-yl)urea]		0.089	0.019
O=C(Nc1cnc(-n2nccn2)c(Cl)c1)Nc1cnc2cc(Cl)nn2c1C1CCOC1 (centres unmarked) [Example 57, 1-(5-chloro-6-(2H-1,2,3-triazol-2-yl)pyridin-3-yl)-3-(2-chloro-7-(tetrahydrofuran-3-yl)pyrazolo[1,5-a]pyrimidin-6-yl)urea]		0.284	0.019
CC(C)c1c(NC(=O)Nc2cc(Cl)cc3c2NC(=O)C3)cnc2cc(Cl)nn12 [Example 31, 1-(5-chloro-2-oxoindolin-7-yl)-3-(2-chloro-7-isopropylpyrazolo[1,5-a]pyrimidin-6-yl)urea]		0.349	0.014
COCCO[C@@H](C)c1c(NC(=O)Nc2cnc(-n3nccn3)c(Cl)c2)cnc2cc(Cl)nn12 [Example 39, (S)-1-(5-chloro-6-(2H-1,2,3-triazol-2-yl)pyridin-3-yl)-3-(2-chloro-7-(1-(2-methoxyethoxy)ethyl)pyrazolo[1,5-a]pyrimidin-6-yl)urea]		0.06	0.003
COc1ccccc1-c1c(NC(=O)Nc2cnc(-n3nccn3)c(Cl)c2)cnc2cc(Cl)nn12 [Example 53, 1-(5-chloro-6-(2H-1,2,3-triazol-2-yl)pyridin-3-yl)-3-(2-chloro-7-(2-methoxyphenyl)pyrazolo[1,5-a]pyrimidin-6-yl)urea]		0.171	0.004
O=C(Nc1cnc(-n2nccn2)c(Cl)c1)Nc1cnc2cc(Cl)nn2c1CC1CCOCC1 [Example 60, 1-(5-chloro-6-(2H-1,2,3-triazol-2-yl)pyridin-3-yl)-3-(2-chloro-7-((tetrahydro-2H-pyran-4-yl)methyl)pyrazolo[1,5-a]pyrimidin-6-yl)urea]		0.502	0.026

Results, then the compound that gave them:

IC50 [1] [µM]	IC50 [2] [µM]	IC50 [3] [µM]	SMILES
0.245	0.099	0.003	CC(C)c1c(NC(=O)Nc2ccc(-n3nccn3)c(Cl)c2)cnc2cc(Cl)nn12 [Example 20, 1-(3-chloro-4-(2H-1,2,3-triazol-2-yl)phenyl)-3-(2-chloro-7-isopropylpyrazolo[1,5-a]pyrimidin-6-yl)urea]
0.145	0.176	0.005	O=C(Nc1cnc(-n2nccn2)c(Cl)c1)Nc1cnc2cc(Cl)nn2c1C1CCC1 [Example 38, 1-(5-chloro-6-(2H-1,2,3-triazol-2-yl)pyridin-3-yl)-3-(2-chloro-7-cyclobutylpyrazolo[1,5-a]pyrimidin-6-yl)urea]
0.089	0.105	0.002	COCC1(c2c(NC(=O)Nc3cnc(-n4nccn4)c(Cl)c3)cnc3cc(Cl)nn23)CCCO1 (centres unmarked) [Example 91, 1-(5-chloro-6-(2H-1,2,3-triazol-2-yl)pyridin-3-yl)-3-(2-chloro-7-(2-(methoxymethyl)tetrahydrofuran-2-yl)pyrazolo[1,5-a]pyrimidin-6-yl)urea]
	0.621	0.034	CC(C)(c1c(NC(=O)Nc2ccnc(C(F)(F)F)c2)cnc2cc(Cl)nn12)C1CCOCC1 [Example 80, 1-(2-chloro-7-(2-(tetrahydro-2H-pyran-4-yl)propan-2-yl)pyrazolo[1,5-a]pyrimidin-6-yl)-3-(2-(trifluoromethyl)pyridin-4-yl)urea]
	0.061	0.006	CO[C@@H](c1c(NC(=O)Nc2cnc(-n3nccn3)c(C(F)(F)F)c2)cnc2cc(Cl)nn12)C(C)C [Example 4, (R)-1-(6-(2H-1,2,3-triazol-2-yl)-5-(trifluoromethyl)pyridin-3-yl)-3-(2-chloro-7-(1-methoxy-2-methylpropyl)pyrazolo[1,5-a]pyrimidin-6-yl)urea]
0.307	0.301		CC(C)c1c(NC(=O)Nc2ccc(-c3ccnc(N)n3)c(Cl)c2)cnc2cc(Cl)nn12 [Example 23, 1-(4-(2-aminopyrimidin-4-yl)-3-chlorophenyl)-3-(2-chloro-7-isopropylpyrazolo[1,5-a]pyrimidin-6-yl)urea]
	0.183	0.009	CC1(c2c(NC(=O)Nc3ccnc(C(F)(F)F)c3)cnc3cc(Cl)nn23)CCCO1 (centres unmarked) [Example 36, 1-(2-chloro-7-(2-methyltetrahydrofuran-2-yl)pyrazolo[1,5-a]pyrimidin-6-yl)-3-(2-(trifluoromethyl)pyridin-4-yl)urea]
